Data from US6284746A (Chinoin, Ltd., priority 1993, dated 2001).
Converted amounts (≈) assume the structure as drawn.

Experiments:
[1] = cited from earlier work
physchem [2] = assay: physchem
Text: The suspension was filtered and the dissolved taxol determined by HPLC.

physchem [3] = conditions: pH 7.6
Experimental: Randomly methylated β-cyclodextrin (average degree of substitution=1.8) was dissolved in physiological buffered saline (pH 7.6) at different concentrations and these solutions were incubated with the taxol substrate for 12 hours at room temperature. Each sample contained taxol in 5 mg/ml initial concentration. The suspensions after equilibration were membrane filtered and assayed for dissolved taxol by HPLC.

physchem [4] = conditions: water
[5] = background statement; cited from earlier work
[6] = Solubility of taxol with soluble anionic-β-cyclodextrin polymer CDPSI (Example 4); type: physicochemical
physchem [7] = conditions: 40% aqueous dimethyl-beta-cyclodextrin
Experimental: 11.6 mg of Taxol (Sigma Chemicals Co. USA) is treated in 10 ml of 40% aqueous heptakis-2,6-di-O-methylated β-cyclodextrin at room temperature for 30 minutes, until a solution of slight haze is obtained.

[8] = Solubilizing of taxol with HPBCD (Example 5); type: physicochemical
Text: Taxol was solubilized and formulated with 2-hydroxypropylated β-cyclodextrin. (HPBCD).

[9] = 25° C., 12 hours

For `CC(=O)O[C@H]1C(=O)[C@@]2(C)[C@H]([C@H](OC(=O)c3ccccc3)[C@]3(O)C[C@H](OC(=O)[C@H](O)[C@@H](NC(=O)c4ccccc4)c4ccccc4)C(C)=C1C3(C)C)[C@]1(OC(C)=O)CO[C@@H]1C[C@@H]2O` (relative stereo) [taxol, [2aR-[2aα, 4β; 4αβ,6β,9α(αR*,βS*),11α-12α,12aα, 12bα]]-β-(Benzoylamino)-α-hydroxybenzene-propanoic acid 6,12-b-bis (acetyloxy)-12-(benzoyloxy)-2a,3,4,4a, 5,6,9,10,11,12,12a,12b-dodecahydro-4,11-dihyroxy-4a,8,13,13-tetramethyl-5-oxo-7,11-methano-1H-cyclodeca[3,4]-benz-[1,2-b]oxet-9-yl ester], the stability of taxol ([1]; Bartoli et al., background) is listed as “generally poor stability”, the “sensitivity to light and pH” value ([1]; background statement) is listed as “very sensitive to light and the pH” and the solubility of taxol ([1]; glycosyl- and maltosyl-β-cyclodextrins with ethanol and ethylacetate (Mikuni 1993)) is listed as 0.02 to 0.11 mg/mL. The solubility thermodynamic at 12 h (physchem [2]; 10% aqueous succinyl-methyl-β-cyclodextrin) was 0.244 mg/mL (≈ 286 µM), the solubility thermodynamic at 12 h (physchem [2]; 40% succinyl-methyl-β-cyclodextrin solution) was 0.993 mg/mL (≈ 1160 µM) and the solubility thermodynamic at 12 h (physchem [3]; 1% rameb in buffered saline) was 0.0044 mg/mL (≈ 5.15 µM). For the same molecule, the solubility thermodynamic at 12 h (physchem [3]; 5% rameb in buffered saline) was 0.0425 mg/mL (≈ 49.8 µM), the solubility thermodynamic at 12 h (physchem [3]; 10% rameb in buffered saline) was 0.232 mg/mL (≈ 271 µM) and the solubility thermodynamic at 12 h (physchem [3]; 40% rameb in buffered saline) was 0.86 mg/mL (≈ 1010 µM). The solubility thermodynamic at 12 h (physchem [3]; buffered saline) was 0.0006 mg/mL (≈ 0.703 µM), the solubility (physchem [4]) was 0.00055 to 0.00059 mg/mL (≈ 0.644 to 0.691 µM) and the antitumor activity [5] was “significant antitumor activity”. The “products of decomposition, biological activity” value [5] was “biologically inactive products are forming”, the solubility ([6]; 0% cdpsi, CDPSI 0%) was 0.0006 mg/mL (≈ 0.703 µM) and the solubility ([6]; 1% cdpsi solution, CDPSI 1%) was 0.0018 mg/mL (≈ 2.11 µM). For the same molecule, the solubility ([6]; 5% cdpsi solution, CDPSI 5%) was 0.0035 mg/mL (≈ 4.1 µM), the solubility ([6]; 10% cdpsi solution, CDPSI 10%) was 0.0106 mg/mL (≈ 12.4 µM) and the solubility ([6]; 40% cdpsi solution, CDPSI 40%) was 0.0568 mg/mL (≈ 66.5 µM). For the same molecule, the solubility at 0.5 h (physchem [7]) was 0.992 to 1 mg/mL (≈ 1160 to 1170 µM), the solubility ([8]; 0.5% hpbcd solution, HPBCD 0.5%) was 0.001 mg/mL (≈ 1.17 µM) and the solubility ([8]; 1% hpbcd solution, HPBCD 1%) was 0.0017 mg/mL (≈ 1.99 µM). The solubility ([8]; 5% hpbcd solution, HPBCD 5%) was 0.0068 mg/mL (≈ 7.96 µM), the solubility ([8]; 10% hpbcd solution, HPBCD 10%) was 0.0349 mg/mL (≈ 40.9 µM) and the solubility ([8]; 40% hpbcd solution, HPBCD 40%) was 0.1 mg/mL (≈ 118 µM). It also gave a solubility ([8]; HPBCD none) of 0.0006 mg/mL (≈ 0.703 µM).

For `CC(=O)O[C@@]12CO[C@@H]1C[C@H](O)[C@@]1(C)C(=O)[C@H](O)C3=C(C)[C@@H](OC(=O)[C@H](O)[C@@H](NC(=O)OC(C)(C)C)c4ccccc4)C[C@@](O)([C@@H](OC(=O)c4ccccc4)[C@H]21)C3(C)C` [Taxotere, butoxycarbonyl-10-deacetyl-N-debenzoyl taxol], the “solubility enhancement relative to free taxol derivative in water” value [9] was 850 times.
